Experiments:
[1] = system: human peripheral blood CD4+ helper T cells; experiment: Pan-CD4+ T cell activation (off-target assay); type: cell-based; details: anti-CD3/anti-CD28 stimulation, IL-2 production by ELISA
Description: The counter-screening was made through an HLA-DR-independent assay (Pan-CD4+ T cell activation assay), i.e., TCR-stimulated pan-T cell activation assay, and consists of activating T cell directly with agonistic antibody targeting the T cell receptor. The lack of inhibition in the counter-screening assay reflects that the inhibition of T cell activation in the HLA-DR4 restricted peptide-specific T cell based assay with the small molecule inhibitors is due to impaired antigen presentation on HLA-DR to the T cell and not due to a direct inhibition of the T cell function by an off-target mechanism (i.e., independently of targeting HLA-DR).
Pan-CD4+ T Cell Activation
Compounds were tested using a pan-T cell activation assay. In this assay, anti-human CD3 antibody (BD Pharmingen #55336) pre-coated at 1 μg/mL to a 96-well assay plate and 1 μg/ml soluble anti-human CD28 (EBioscience #16-0289-85) antibody were used for activating human peripheral blood CD4+ helper T cells (no HLA-DR-expressing APC were present in this assay format), in the presence of compounds (or vehicle control) for 24 hrs. IL-2 production was measured in the culture supernatant by ELISA (Human IL-2 Duo Set ELISA #DY202 from R&D Systems).

[2] = target: HLA-DRB1*0401 (Homo sapiens (Human), UniProt P01903+P01911, A100K/A169T/DEL228-266/F76Y/I96L/K127E/L162R/M171V/N62H/P40V/Q125Y/R42H/S133A/S149N/S66Y/V115G/V209L/W38E); experiment: HLA-DR4 HTRF assay; type: binding; details: inhibition of loading of Alexa Fluor 647-labeled Cit-CII peptide onto HLA-DR4 (CLIP cleaved)
Method in brief: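 HLA-DRB1*04:01 construct (α/β fused to human Fc, CLIP pre-cleaved by HRV3C overnight at 4° C) at 3 nM was preincubated 45 min with compound and 1 nM anti-Fc-Tb donor, then 40 nM Alexa647-Cit-CII1236-1249 peptide added. After 90 min at 37° C, the 665/620 nm HTRF ratio gave % inhibition; IC50 by nonlinear regression.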

[3] = system: HLA-DR4 restricted mouse T cell hybridoma line (DR4.CII.36.8) with HLA-DRB1*04:01-expressing Boleth cells; experiment: HLA-DR4-restricted peptide-specific T cell-based assay (hybridoma assay); details: 6 h, inhibition of IL-2 production, CII259-273 peptide presented by Boleth cells
Method in brief: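 IC50 values derive from 4-parameter logistic fits of IL-2 AlphaLISA signal over 8-point duplicate titrations. Compound and HLA-DRB1*04:01 Boleth APCs were preincubated 1 h, 37° C., before adding CII259-273-restricted DR4.CII.36.8 hybridoma cells with peptide for 6 h at 37° C., in DMEM/1% FCS.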

CCc1c(O[C@H](c2ccncc2)c2ccc(C(N)=O)cc2)ccc2c1OCCC2=O (single isomer, unassigned) [Example 73b, (*S)-4-(((8-ethyl-4-oxochroman-7-yl)oxy)(pyridin-4-yl)methyl)benzamide]
IC50 ([1]; Homo sapiens, T-cell, 24 h): 15000 nM
IC50 [2]: 600 nM
IC50 ([3]; Mus musculus, T-cell): 710 nM

CC1(C)COc2cc(O[C@@H](c3ccncc3)c3ccc(C(N)=O)cc3)ccc2C1=O (single isomer, unassigned) [Example 56a, (*R)-4-(((3,3-dimethyl-4-oxochroman-7-yl)oxy)(pyridin-4-yl)methyl)benzamide]
IC50 ([1]; Homo sapiens, T-cell, 24 h): 4600 nM
IC50 [2]: 1400 nM
IC50 ([3]; Mus musculus, T-cell): 1700 nM

Cc1c(O[C@@H](c2ccncc2)c2ccc(C(N)=O)cc2)ccc2c1OCCC2=O (single isomer, unassigned) [Example 48b, (*S)-4-(((8-methyl-4-oxochroman-7-yl)oxy)(pyridin-4-yl)methyl)benzamide]
IC50 ([1]; 24 hrs): > 15000 nM
IC50 [2]: 690 nM
IC50 [3]: 1100 nM

N#Cc1c(O[C@H](c2ccncc2)c2ccc(C(N)=O)cc2)ccc2c1OCCC2=O (single isomer, unassigned) [Example 78b, (*S)-4-(((8-cyano-4-oxochroman-7-yl)oxy)(pyridin-4-yl)methyl)benzamide]
IC50 ([1]; Homo sapiens, T-cell, 24 h): 15000 nM
IC50 [2]: 450 nM
IC50 ([3]; Mus musculus, T-cell): 470 nM

CCc1cc(O[C@@H](c2ccncc2)c2ccc(C(N)=O)cc2)cc2c1C(=O)CCO2 (single isomer, unassigned) [Example 99a, (*R)-4-(((5-ethyl-4-oxochroman-7-yl)oxy)(pyridin-4-yl)methyl)benzamide]
IC50 ([1]; Homo sapiens, T-cell, 24 h): 3100 nM
IC50 [2]: 42000 nM
IC50 ([3]; Mus musculus, T-cell): 590 nM

CC[C@H]1CC(=O)c2ccc(O[C@@H](c3ccncc3)c3ccc(C(N)=O)cc3)cc2O1 (single isomer, unassigned) [Example 40b, 4-((*R)—(((*S)-2-ethyl-4-oxochroman-7-yl)oxy)(pyridin-4-yl)methyl)benzamide]
IC50 ([1]; Homo sapiens, T-cell, 24 h): 15000 nM
IC50 [2]: 1300 nM
IC50 ([3]; Mus musculus, T-cell): 1000 nM

NC(=O)c1cccc([C@@H](Oc2ccc3c(c2)OCCC3=O)c2ccncc2)c1 (single isomer, unassigned) [Example 9a, (*R)-3-(((4-oxochroman-7-yl)oxy)(pyridin-4-yl)methyl)benzamide]
IC50 ([1]; Homo sapiens, T-cell, 24 h): 4700 nM
IC50 [2]: 920 nM
IC50 ([3]; Mus musculus, T-cell): 6300 nM

Cc1c(O[C@@H](c2ccc(Cl)cc2)c2ccc(C(N)=O)nc2)ccc2c1OCCC2=O (single isomer, unassigned) [Example 64b, (*S)-5-((4-chlorophenyl)((8-methyl-4-oxochroman-7-yl)oxy)methyl)picolinamide]
IC50 ([1]; Homo sapiens, T-cell, 24 h): > 15000 nM
IC50 [2]: 1800 nM
IC50 ([3]; Mus musculus, T-cell): 4800 nM

NC(=O)c1ccc([C@H](Oc2ccc3c(c2-c2ccccc2)OCCC3=O)c2ccncc2)cc1 (single isomer, unassigned) [Example 53b, (*S)-4-(((4-oxo-8-phenylchroman-7-yl)oxy)(pyridin-4-yl)methyl)benzamide]
IC50 ([1]; Homo sapiens, T-cell, 24 h): 3200 nM
IC50 [2]: 600 nM
IC50 ([3]; Mus musculus, T-cell): 450 nM

NC(=O)c1ccc([C@@H](Oc2cc(F)c3c(c2)OCCC3=O)c2ccncc2)cc1 (single isomer, unassigned) [Example 51a, (*R)-4-(((5-Fluoro-4-oxochroman-7-yl)oxy)(pyridin-4-yl)methyl)benzamide]
IC50 ([1]; Homo sapiens, T-cell, 24 h): 15000 nM
IC50 [2]: 3600 nM
IC50 ([3]; Mus musculus, T-cell): 250 nM

NC(=O)c1ccc([C@H](Oc2ccc3c(c2)O[C@H](c2ccccc2)CC3=O)c2ccncc2)cc1 (single isomer, unassigned) [Example 42b, 4-((*S)—(((*S)-4-oxo-2-phenylchroman-7-yl)oxy)(pyridin-4-yl)methyl)benzamide]
IC50 ([1]; Homo sapiens, T-cell, 24 h): 9900 nM
IC50 [2]: 7500 nM
IC50 ([3]; Mus musculus, T-cell): 12000 nM

COc1ccccc1[C@H](Oc1ccc2c(c1)OCCC2=O)c1ccncc1 (single isomer, unassigned) [Example 14a, (*R)-7-((2-Methoxyphenyl)(pyridin-4-yl)methoxy)chroman-4-one]
IC50 ([1]; Homo sapiens, T-cell, 24 h): > 15000 nM
IC50 [2]: 1900 nM
IC50 ([3]; Mus musculus, T-cell): 8700 nM

NC(=O)c1ccc([C@H](Oc2ccc3c(c2F)OCCC3=O)c2ccncc2)cc1 (single isomer, unassigned) [Example 50b, (*S)-4-(((8-Fluoro-4-oxochroman-7-yl)oxy)(pyridin-4-yl)methyl)benzamide]
IC50 ([1]; Homo sapiens, T-cell, 24 h): > 15000 nM
IC50 [2]: 1900 nM
IC50 ([3]; Mus musculus, T-cell): 2500 nM

COc1cnccc1[C@@H](Oc1ccc2c(c1)OCCC2=O)c1ccc(C(N)=O)cc1 (single isomer, unassigned) [Example 23b, (*S)-4-((3-methoxypyridin-4-yl)((4-oxochroman-7-yl)oxy)methyl)benzamide]
IC50 ([1]; Homo sapiens, T-cell, 24 h): > 15000 nM
IC50 [2]: 680 nM
IC50 ([3]; Mus musculus, T-cell): 5000 nM

NC(=O)c1ccc([C@H](Oc2ccc3c(c2)OCCC3=O)c2ccccc2)cc1 (single isomer, unassigned) [Example 29a, (*R)-4-(((4-oxochroman-7-yl)oxy)(phenyl)methyl)benzamide]
IC50 ([1]; Homo sapiens, T-cell, 24 h): > 15000 nM
IC50 [2]: 1100 nM
IC50 ([3]; Mus musculus, T-cell): 2300 nM

C[C@@H]1COc2cc(O[C@@H](c3ccncc3)c3ccc(C(N)=O)cc3)ccc2C1=O (single isomer, unassigned) [Example 44b, 4-((*R)—(((*R)-3-Methyl-4-oxochroman-7-yl)oxy)(pyridin-4-yl)methyl)benzamide]
IC50 ([1]; Homo sapiens, T-cell, 24 h): > 15000 nM
IC50 [2]: 1100 nM
IC50 ([3]; Mus musculus, T-cell): 2300 nM

Cc1c(O[C@@H](c2ccncc2)c2ccc(C(N)=O)cc2OCC(C)C)ccc2c1OCCC2=O (single isomer, unassigned) [Example 85b, (*S)-3-isobutoxy-4-(((8-methyl-4-oxochroman-7-yl)oxy)(pyridin-4-yl)methyl)benzamide]
IC50 ([1]; Homo sapiens, T-cell, 24 h): 470 nM
IC50 [2]: 1100 nM
IC50 ([3]; Mus musculus, T-cell): 3900 nM

CC[C@H]1COc2cc(O[C@@H](c3ccncc3)c3ccc(C(N)=O)cc3)ccc2C1=O (single isomer, unassigned) [Example 46b, 4-((*R)—(((*S)-3-ethyl-4-oxochroman-7-yl)oxy)(pyridin-4-yl)methyl)benzamide]
IC50 ([1]; Homo sapiens, T-cell, 24 h): 5000 nM
IC50 [2]: 1300 nM
IC50 ([3]; Mus musculus, T-cell): 170 nM

NC(=O)c1ccc([C@@H](Oc2cc3c(cc2F)C(=O)CCO3)c2ccncc2)cc1 (single isomer, unassigned) [Example 52a, (*R)-4-(((6-Fluoro-4-oxochroman-7-yl)oxy)(pyridin-4-yl)methyl)benzamide]
IC50 ([1]; Homo sapiens, T-cell, 24 h): > 15000 nM
IC50 [2]: 230 nM
IC50 ([3]; Mus musculus, T-cell): 560 nM

NC(=O)c1ccc([C@H](Oc2ccc3c(c2-c2ccc(-c4ccccc4)cc2)OCCC3=O)c2ccncc2)cc1 (single isomer, unassigned) [Example 79b, (*S)-4-(((8-([1,1′-biphenyl]-4-yl)-4-oxochroman-7-yl)oxy)(pyridin-4-yl)methyl)benzamide]
IC50 ([1]; Homo sapiens, T-cell, 24 h): > 15000 nM
IC50 [2]: 49000 nM
IC50 ([3]; Mus musculus, T-cell): 970 nM

O=C1CCOc2cc(O[C@@H](c3ccccc3)c3ccncc3)ccc21 (single isomer, unassigned) [Example 114b, (*S)-7-(phenyl(pyridin-4-yl)methoxy)chroman-4-one]
IC50 ([1]; Homo sapiens, T-cell, 24 h): 4700 nM
IC50 [2]: 1300 nM
IC50 ([3]; Mus musculus, T-cell): 3000 nM

NC(=O)c1ccc([C@H](Oc2ccc3c(c2Br)OCCC3=O)c2ccncc2)cc1 (single isomer, unassigned) [Example 102b, (*S)-4-(((8-bromo-4-oxochroman-7-yl)oxy)(pyridin-4-yl)methyl)benzamide]
IC50 ([1]; Homo sapiens, T-cell, 24 h): > 15000 nM
IC50 [2]: > 89000 nM
IC50 ([3]; Mus musculus, T-cell): 91 nM

CCc1c(O[C@@H](c2ccncc2)c2ccc(C(N)=O)cc2)ccc2c1OCCC2=O (single isomer, unassigned) [Example 73a, (*R)-4-(((8-ethyl-4-oxochroman-7-yl)oxy)(pyridin-4-yl)methyl)benzamide]
IC50 ([1]; Homo sapiens, T-cell, 24 h): 8000 nM
IC50 [2]: 540 nM
IC50 ([3]; Mus musculus, T-cell): 110 nM

Cc1cc([C@H](Oc2c(F)cc3c(c2C)OCCC3=O)c2ccc(C(N)=O)cc2)cc(C)n1 (single isomer, unassigned) [Example 94a, (*R)-4-((2,6-dimethylpyridin-4-yl)((6-fluoro-8-methyl-4-oxochroman-7-yl)oxy)methyl)benzamide]
IC50 ([1]; Homo sapiens, T-cell, 24 h): 9900 nM
IC50 [2]: 220 nM
IC50 ([3]; Mus musculus, T-cell): 47 nM

Source: patent US12516038B2, “Inhibitors of antigen presentation by HLA-DR” (Janssen Pharmaceutica NV, priority 2020, dated 2026)
